In patent publication US12655088B2, “Compound for treating Alzheimer's disease” (XIAMEN UNIVERSITY, priority 2020, dated 2026):

Legend:
[1] = biological target: T1, USP25 (His-USP25^a.a.157-706 recombinant protein, deubiquitinase catalytic domain) (Homo sapiens, UniProt Q9UHP3); assay: Screening of USP25 inhibitors with Ubiquitin-Rhodamine 110; details: 10 μM compound, 33.3 nM His-USP25^157-706, 133.3 nM Ubiquitin-Rhodamine 110
T1 sequence (Q9UHP3 157-706): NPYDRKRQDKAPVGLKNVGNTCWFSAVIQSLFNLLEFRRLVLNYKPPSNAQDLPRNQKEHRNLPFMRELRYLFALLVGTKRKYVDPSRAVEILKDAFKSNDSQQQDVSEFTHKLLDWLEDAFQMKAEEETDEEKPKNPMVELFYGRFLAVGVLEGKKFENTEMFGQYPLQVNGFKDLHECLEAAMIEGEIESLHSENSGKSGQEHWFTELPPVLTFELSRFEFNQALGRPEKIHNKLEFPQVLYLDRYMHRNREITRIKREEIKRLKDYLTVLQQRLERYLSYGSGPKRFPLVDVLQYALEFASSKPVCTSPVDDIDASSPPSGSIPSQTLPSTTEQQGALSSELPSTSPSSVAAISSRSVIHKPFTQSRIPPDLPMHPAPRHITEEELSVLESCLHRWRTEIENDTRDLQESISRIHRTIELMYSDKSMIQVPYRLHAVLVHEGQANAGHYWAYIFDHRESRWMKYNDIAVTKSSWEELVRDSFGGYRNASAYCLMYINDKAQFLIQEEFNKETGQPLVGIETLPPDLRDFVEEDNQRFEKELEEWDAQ
Description: And then, the fluorescence intensity of Ubiquitin-Rhodamine 110 was detected by a Tecan Spark multifunctional microplate reader (Tecan, Switzerland).

[2] = tested on: Mouse microglial cell line BV2; assay: LPS-induced inflammatory response in microglia cell line BV2 (real-time PCR of Il1b); type: cell-based; details: 10 μM compound
Description: Mouse microglial cell line BV2 was treated with 25 ng/mL lipopolysaccharide (LPS) and 10 μM MZ3, respectively.
(§1) After the cells were treated for 24 hours, RNAs were extracted by TRIzol (Thermo Fisher Scientific), and then reverse-transcribed using Rever Tra Ace qPCR RT Kit (TOYOBO), and real-time fluorescence quantification PCR was performed using FastStart Universal SYBR Green Master (Roche) to detect the transcription levels of inflammation-related gene Il1b.
as §1, with “12” for “24”
Mouse microglial cell line BV2 was treated with 100 ng/mL lipopolysaccharide (LPS) and 10 μM MZ24, MZ25, MZ26, MZ28, MZ29 and MZ31, respectively.

[3] = tested on: microglia of C57BL/6 mice; assay: LPS-induced inflammatory response of primary microglia (real-time PCR of Il1b and Il6); type: cell-based; details: 50 ng/mL LPS, 10 μM compound, 6 hours
Description: as §1, with “6” for “24”, “genes Il1b and Il6.” for “gene Il1b.”
as §1, with “6” for “24”

deubiquitinase activity of USP25 (Ubiquitin-Rhodamine 110 fluorescence intensity) [1]	Compound	also measured
can significantly inhibit	Fc1ccc(COc2ccc(Br)cc2CN(CCC2CCN(Cc3ccccc3)CC2)Cc2cc(Br)ccc2OCc2ccc(F)c(C(F)(F)F)c2)cc1C(F)(F)F [MZ36]	–
can significantly inhibit	CN1CCN(Cc2ccc(OC(F)F)c(OCc3cc(C(F)(F)F)cc(C(F)(F)F)c3)c2)CC1 [MZ23]	LPS-induced Il1b expression ([2]; BV2, 50 ng/mL LPS, 12 hours): can significantly reduce
can significantly inhibit	Fc1cc(COc2ccc(Br)cc2CNCCc2c[nH]c3ccccc23)ccc1C(F)(F)F [MZ31]	LPS-induced Il1b expression ([2]; BV2, 100 ng/mL LPS, 12 hours): can significantly reduce
can significantly inhibit	NCc1cc(Br)ccc1OCc1ccc(F)c(C(F)(F)F)c1 [XMU1, (5-bromo-2-((4-fluoro-3-(trifluoromethyl)benzyl)oxy)phenyl)methanamine]	LPS-induced Il1b expression [3]: can significantly reduce
can significantly inhibit	OCCNCc1cc(Br)ccc1NCc1cccc(OC(F)(F)F)c1 [MZ77]	LPS-induced Il1b expression [3]: can significantly reduce
can significantly inhibit	OCCNCc1ccccc1OCc1cc(C(F)(F)F)cc(C(F)(F)F)c1 [MZ67]	–
can significantly inhibit	CCN1CCN(Cc2cc(Br)ccc2OCc2ccc(F)c(C(F)(F)F)c2)CC1 [MZ33]	–
can significantly inhibit	OCCNCc1ccccc1NCc1cccc(OC(F)(F)F)c1 [MZ75]	LPS-induced Il1b expression [3]: can significantly reduce
can significantly inhibit	CCN(CC)CCNCc1ccc(OC(F)F)c(OCc2cc(F)c(F)cc2F)c1 [MZ27]	–
can significantly inhibit	COc1cc(OC)c(CN2CCN(CCO)CC2)c(OCc2cc(C(F)(F)F)cc(C(F)(F)F)c2)c1 [MZ24]	LPS-induced Il1b expression ([2]; BV2, 100 ng/mL LPS, 12 hours): can significantly reduce
can significantly inhibit	COc1cc(OC)c(CNc2ccc(Br)cn2)c(OCc2cc(C(F)(F)F)cc(C(F)(F)F)c2)c1 [MZ5]	–
can significantly inhibit	O=Cc1cc(Br)ccc1OCc1cc(F)c(F)cc1F [MZ38]	–
can significantly inhibit	COc1cc(OC)c(CNCCO)c(OCc2ccc(F)c(C(F)(F)F)c2)c1 [MZ68]	–
can significantly inhibit	Fc1cc(F)c(COc2cc(CN3CCc4ccccc4C3)ccc2OC(F)F)cc1F [MZ30]	–
can significantly inhibit	COc1ccc(CNCCO)cc1OCc1cc(C(F)(F)F)cc(C(F)(F)F)c1 [MZ72]	–
can significantly inhibit	Cc1ccc(OCc2ccc(F)c(C(F)(F)F)c2)c(CN2CCN(CCO)CC2)c1 [MZ32]	–
can significantly inhibit	COc1cc(OC)c(C=O)c(OCc2cc(C(F)(F)F)cc(C(F)(F)F)c2)c1 [MZ41]	–
can significantly inhibit	COc1ccc(CNCCO)cc1OCc1ccc(F)c(C(F)(F)F)c1 [MZ71]	–

deubiquitinase activity of USP25 (Ubiquitin-Rhodamine 110 fluorescence intensity) [1]	Compound	also measured
can significantly inhibit	OCCN1CCN(Cc2ccc(OC(F)F)c(OCc3cc(F)c(F)cc3F)c2)CC1 [MZ29]	LPS-induced Il1b expression ([2]; BV2, 100 ng/mL LPS, 12 hours): can significantly reduce
can significantly inhibit	CCN(CC)CCNCc1cc(Br)ccc1OCc1cc(F)c(F)cc1F [MZ34]	LPS-induced Il1b expression ([2]; BV2, 50 ng/mL LPS, 12 hours): can significantly reduce
can significantly inhibit	OCCNCc1cc(Br)ccc1NCc1ccc(F)c(C(F)(F)F)c1 [MZ76]	LPS-induced Il1b expression [3]: can significantly reduce
can significantly inhibit	O=Cc1ccc(OC(F)F)c(OCc2cc(C(F)(F)F)cc(C(F)(F)F)c2)c1 [MZ42]	–
can significantly inhibit	OCc1cc(Br)ccc1OCc1ccc(F)c(C(F)(F)F)c1 [MZ35]	–
can significantly inhibit	COc1cc(OC)c(CN2CCN(C)CC2)c(OCc2cc(C(F)(F)F)cc(C(F)(F)F)c2)c1 [MZ4]	–
can significantly inhibit	O=Cc1ccc(OCc2ccc(F)c(C(F)(F)F)c2)c(OC(F)F)c1 [MZ40]	–
can significantly inhibit	OCCNCc1cc(Br)ccc1OCc1cc(C(F)(F)F)cc(C(F)(F)F)c1 [MZ1]	–
can significantly inhibit	OCCNCc1ccccc1NCc1ccc(F)c(C(F)(F)F)c1 [MZ74]	–
can significantly inhibit	OCCN1CCN(Cc2ccc(OC(F)F)c(OCc3cc(C(F)(F)F)cc(C(F)(F)F)c3)c2)CC1 [MZ25]	LPS-induced Il1b expression ([2]; BV2, 100 ng/mL LPS, 12 hours): can significantly reduce
can significantly inhibit	COc1cc(OC)c(CNCCO)c(OCc2cc(C(F)(F)F)cc(C(F)(F)F)c2)c1 [MZ69]	–
can significantly inhibit	COc1cc(OC)c(C=O)c(OCc2ccc(F)c(C(F)(F)F)c2)c1 [MZ43]	–
can significantly inhibit	OCCNCc1ccccc1OCc1ccc(F)c(C(F)(F)F)c1 [MZ66]	–
can significantly inhibit	O=Cc1cc(Br)ccc1OCc1ccc(F)c(C(F)(F)F)c1 [MZ39, 5-bromo-2-(4-fluoro-3-(trifluoromethyl)benzyloxy)benzaldehyde]	–
can significantly inhibit	CN1CCN(Cc2ccc(OC(F)F)c(OCc3cc(F)c(F)cc3F)c2)CC1 [MZ28]	LPS-induced Il1b expression ([2]; BV2, 100 ng/mL LPS, 12 hours): can significantly reduce
can significantly inhibit	CCN(CC)CCNCc1ccc(OC(F)F)c(OCc2cc(C(F)(F)F)cc(C(F)(F)F)c2)c1 [MZ26]	LPS-induced Il1b expression ([2]; BV2, 100 ng/mL LPS, 12 hours): can significantly reduce
can significantly inhibit	Fc1ccc(COc2ccc(Br)cc2CNCCC2CCN(Cc3ccccc3)CC2)cc1C(F)(F)F [MZ37]	–
can significantly inhibit	OCCNCc1ccc(OC(F)F)c(OCc2cc(C(F)(F)F)cc(C(F)(F)F)c2)c1 [MZ3]	LPS-induced Il1b expression ([2]; BV2, 25 ng/mL LPS, 24 hours): can significantly reduce
